Experimental data from PubChem BioAssay (NCI).
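How tested: cells in 96-well plates exposed to compound for 48 hours at five concentrations. GI50: concentration for 50% inhibition of growth. At the TGI there is no net growth.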

Key:
Test in all cases: growth of human tumour cells (NCI), 48 h
786-0 renal = test system: 786-0 renal
A498 renal = test system: A498 renal
A549 NSCLC = test system: A549 NSCLC
ACHN renal = test system: ACHN renal
BT-549 breast = test system: BT-549 breast
CAKI-1 renal = test system: CAKI-1 renal
CCRF-CEM leukemia = test system: CCRF-CEM leukemia
COLO 205 colon = test system: COLO 205 colon
DU-145 prostate = test system: DU-145 prostate
EKVX NSCLC = test system: EKVX NSCLC
HCC-2998 colon = test system: HCC-2998 colon
HCT-116 colon = test system: HCT-116 colon
HCT-15 colon = test system: HCT-15 colon
HL-60(TB) leukemia = test system: HL-60(TB) leukemia
HOP-62 NSCLC = test system: HOP-62 NSCLC
HOP-92 NSCLC = test system: HOP-92 NSCLC
HS 578T breast = test system: HS 578T breast
HT29 colon = test system: HT29 colon
IGROV1 ovarian = test system: IGROV1 ovarian
K-562 leukemia = test system: K-562 leukemia
KM12 colon = test system: KM12 colon
LOX IMVI melanoma = test system: LOX IMVI melanoma
M14 melanoma = test system: M14 melanoma
MALME-3M melanoma = test system: MALME-3M melanoma
MCF7 breast = test system: MCF7 breast
MDA-MB-231 breast = test system: MDA-MB-231 breast
MDA-MB-435 = test system: MDA-MB-435
MOLT-4 leukemia = test system: MOLT-4 leukemia
NCI-H226 lung = test system: NCI-H226 lung
NCI-H23 lung = test system: NCI-H23 lung
NCI-H460 lung = test system: NCI-H460 lung
NCI-H522 lung = test system: NCI-H522 lung
NCI/ADR-RES ovarian = test system: NCI/ADR-RES ovarian
OVCAR-3 ovarian = test system: OVCAR-3 ovarian
OVCAR-4 ovarian = test system: OVCAR-4 ovarian
OVCAR-5 ovarian = test system: OVCAR-5 ovarian
OVCAR-8 ovarian = test system: OVCAR-8 ovarian
PC-3 prostate = test system: PC-3 prostate
RPMI-8226 leukemia = test system: RPMI-8226 leukemia
RXF 393 renal = test system: RXF 393 renal
SF-268 CNS = test system: SF-268 CNS
SF-295 CNS = test system: SF-295 CNS
SF-539 CNS = test system: SF-539 CNS
SK-MEL-2 melanoma = test system: SK-MEL-2 melanoma
SK-MEL-28 melanoma = test system: SK-MEL-28 melanoma
SK-MEL-5 melanoma = test system: SK-MEL-5 melanoma
SK-OV-3 ovarian = test system: SK-OV-3 ovarian
SN12C renal = test system: SN12C renal
SNB-19 CNS = test system: SNB-19 CNS
SNB-75 CNS = test system: SNB-75 CNS
SR leukemia = test system: SR leukemia
SW-620 colon = test system: SW-620 colon
T-47D breast = test system: T-47D breast
TK-10 renal = test system: TK-10 renal
U251 CNS = test system: U251 CNS
UACC-257 melanoma = test system: UACC-257 melanoma
UACC-62 melanoma = test system: UACC-62 melanoma
UO-31 renal = test system: UO-31 renal

## COc1ccc(-c2cn(-c3cccc(C(=O)/C=C/c4ccc(O)c(OC)c4)c3)c(=O)[nH]2)cc1
786-0 renal
  GI50: 4.32 µM
  TGI: 24.5 µM
A498 renal
  GI50: 3.51 µM
  TGI: 13.1 µM
A549 NSCLC
  GI50: 3.64 µM
  TGI: > 53 µM
ACHN renal
  GI50: 2.55 µM
  TGI: 6.22 µM
BT-549 breast
  GI50: 3.32 µM
  TGI: 22.8 µM
CAKI-1 renal
  GI50: 5.79 µM
  TGI: 50.4 µM
CCRF-CEM leukemia
  GI50: 1.19 µM
  TGI: 5.81 µM
COLO 205 colon
  GI50: 4.79 µM
  TGI: 15.3 µM
DU-145 prostate
  GI50: 3.02 µM
  TGI: 9.27 µM
EKVX NSCLC
  GI50: 8.4 µM
  TGI: > 100 µM
HCC-2998 colon
  GI50: 2.39 µM
  TGI: 6.14 µM
HCT-116 colon
  GI50: 1.89 µM
  TGI: 4.87 µM
HCT-15 colon
  GI50: 2.64 µM
  TGI: 32.8 µM
HL-60(TB) leukemia
  GI50: 2.5 µM
  TGI: 16 µM
HOP-62 NSCLC
  GI50: 8.85 µM
  TGI: > 100 µM
HOP-92 NSCLC
  GI50: 2.61 µM
  TGI: 20.5 µM
HS 578T breast
  GI50: 3.24 µM
  TGI: > 27.2 µM
HT29 colon
  GI50: 2.99 µM
  TGI: > 22.7 µM
IGROV1 ovarian
  GI50: 3.58 µM
  TGI: 18.2 µM
K-562 leukemia
  GI50: 4.71 µM
  TGI: > 37.7 µM
KM12 colon
  GI50: 1.7 µM
  TGI: 3.57 µM
LOX IMVI melanoma
  GI50: 2.21 µM
  TGI: 6.02 µM
M14 melanoma
  GI50: 4.48 µM
  TGI: 40.5 µM
MALME-3M melanoma
  GI50: 3.98 µM
  TGI: 24.4 µM
MCF7 breast
  GI50: 2.66 µM
  TGI: 22 µM
MDA-MB-231 breast
  GI50: 4.06 µM
  TGI: > 54.3 µM
MDA-MB-435
  GI50: 3.19 µM
  TGI: > 62.2 µM
MOLT-4 leukemia
  GI50: 2.87 µM
  TGI: > 23.8 µM
NCI-H226 lung
  GI50: 5.25 µM
  TGI: > 59.5 µM
NCI-H23 lung
  GI50: 3.57 µM
  TGI: 25.2 µM
NCI-H460 lung
  GI50: 3.21 µM
  TGI: 10.4 µM
NCI-H522 lung
  GI50: 2.6 µM
  TGI: 10.7 µM
NCI/ADR-RES ovarian
  GI50: 2.97 µM
  TGI: > 31.4 µM
OVCAR-3 ovarian
  GI50: 2.48 µM
  TGI: 7.37 µM
OVCAR-4 ovarian
  GI50: 4.03 µM
  TGI: > 24.4 µM
OVCAR-5 ovarian
  GI50: 8.25 µM
  TGI: 35.4 µM
OVCAR-8 ovarian
  GI50: 3.58 µM
  TGI: > 49.6 µM
PC-3 prostate
  GI50: 2.91 µM
  TGI: 14.2 µM
RPMI-8226 leukemia
  GI50: 1.35 µM
  TGI: 3.68 µM
RXF 393 renal
  GI50: 5.85 µM
  TGI: 28.6 µM
SF-268 CNS
  GI50: 3.32 µM
  TGI: 14.7 µM
SF-295 CNS
  GI50: 11.2 µM
  TGI: > 85.4 µM
SF-539 CNS
  GI50: 2.12 µM
  TGI: 5.53 µM
SK-MEL-2 melanoma
  GI50: 4.72 µM
  TGI: > 58.1 µM
SK-MEL-28 melanoma
  GI50: 1.99 µM
  TGI: 4.51 µM
SK-MEL-5 melanoma
  GI50: 2.69 µM
  TGI: 11 µM
SK-OV-3 ovarian
  GI50: 4.32 µM
  TGI: 48.6 µM
SN12C renal
  GI50: 3.47 µM
  TGI: > 100 µM
SNB-19 CNS
  GI50: 4.59 µM
  TGI: 43.9 µM
SNB-75 CNS
  GI50: 4.75 µM
  TGI: > 80.2 µM
SR leukemia
  GI50: 2.24 µM
  TGI: > 100 µM
SW-620 colon
  GI50: 2.42 µM
  TGI: 6.22 µM
T-47D breast
  GI50: 3.27 µM
  TGI: 40.8 µM
TK-10 renal
  GI50: 7.38 µM
  TGI: > 85.4 µM
U251 CNS
  GI50: 2.86 µM
  TGI: 15.3 µM
UACC-257 melanoma
  GI50: 8.03 µM
  TGI: 39.3 µM
UACC-62 melanoma
  GI50: 3.18 µM
  TGI: 16.1 µM
UO-31 renal
  GI50: 3.64 µM
  TGI: 40.3 µM
